The structures appear in SMILES notation.

In the data set the test system is cancer cells. The experiment in a line: cytotoxic activity of ADC metabolites. Particulars: through binding to tubulin and inhibition of microtubule polymerization. In kind it is cell-based.

As to `COc1cc2cc(c1Cl)N(C)C(=O)CC(OC(=O)C(C)N(C)C(=O)CCC(C)(C)S)C1(C)OC1C(C)C1CC(O)(NC(=O)O1)C(OC)/C=C/C=C(\C)C2` (centres unmarked) [DM4, N2′-deacetyl-N-2′(4-methyl-4-mercapto-1-oxopentyl)-maytansine], the cytotoxic activity entry is “potent cytotoxic activity”.

With `COc1cc2cc(c1Cl)N(C)C(=O)CC(OC(=O)C(C)N(C)C(=O)CCC(C)(C)SC)C1(C)OC1C(C)C1CC(O)(NC(=O)O1)C(OC)C=CC=C(C)C2` (centres unmarked) [Me-DM4], the cytotoxic activity entry was “potent cytotoxic activity”.
